Measurements taken from paper PMC4666032, “KPT-330, a potent and selective exportin-1 (XPO-1) inhibitor, shows antitumor effects modulating the expression of cyclin D1 and survivin in prostate cancer models” (BMC Cancer, 2015).

Test system: 22rv1 xenografts
Assay: 22rv1 xenograft in male nude mice
Format: in vivo
Settings: PO Mon/Wed/Fri, vs vehicle
Text: Male CD1 nude mice (Charles River, Milan, Italy) were maintained under the guidelines established by the University of L’Aquila, Medical School and Science and Technology School Board Regulations. Experiments on animals have been approved by your local IRB in compliance with the Italian government regulation n.116 January 27, 1992 for the use of laboratory animals which is line with ARRIVE guidelines. All mice received subcutaneous flank injections of 1 x 10^6 PC3, DU145 or 22v1 cells. Tumor growth was measured bi-weekly with a Vernier caliper (length x width). Tumor weight was calculated according to the formula: TW (mg) = tumor volume (mm^3) = d2 x D/2, where d and D are the shortest and longest diameters, respectively. The effects of the treatments were examined as previously described. […]
Mice were treated by oral gavage with either vehicle control (Pluronic F-68/PVP-K29/32), KPT330 or KPT251. […] In vivo, combinational studies were evaluated by CalcuSyn (Biosoft). For the calculation of CI, the values of cell kill for a fixed tumor volume were considered (determined by the log cell kill (LCK)). LCK was determined as LCKZ (TKC)/(3.3KTd), where Td represents the mean control group doubling time required to reach a fixed tumor volume, expressed in days, whereas T and C are the same values as described above. […]

Compound: FC(F)(F)c1cc(-c2ncn(/C=C\c3nnco3)n2)cc(C(F)(F)F)c1 [KPT-251]
- tumor weight: reduce tumor weight in a dose-dependent manner

Compound: O=C(/C=C\n1cnc(-c2cc(C(F)(F)F)cc(C(F)(F)F)c2)n1)NNc1cnccn1 [KPT-330]
- tumor weight: reduce tumor weight in a dose-dependent manner
